Counter-ions that a name gives are not always drawn.

One test concerns the target T1, human GPR120 (Homo sapiens, UniProt Q5NUL3).
T1 construct: expressed in transfected cells
T1 sequence (Q5NUL3 1-361): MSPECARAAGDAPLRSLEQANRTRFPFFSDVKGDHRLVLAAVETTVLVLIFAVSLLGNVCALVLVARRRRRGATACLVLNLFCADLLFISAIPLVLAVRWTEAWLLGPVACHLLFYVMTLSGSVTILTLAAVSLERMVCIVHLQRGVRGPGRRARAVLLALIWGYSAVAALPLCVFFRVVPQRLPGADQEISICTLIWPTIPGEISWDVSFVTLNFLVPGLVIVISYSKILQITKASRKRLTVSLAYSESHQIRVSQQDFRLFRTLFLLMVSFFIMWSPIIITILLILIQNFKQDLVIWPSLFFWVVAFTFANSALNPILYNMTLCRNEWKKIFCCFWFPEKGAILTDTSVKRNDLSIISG
Put plainly: Measurement of intracellular calcium concentration (FLIPR), GPR120 agonist action. The test is classed as cell-based. As to conditions: 10 μmol/l test compound, human GPR120 expression CHO cells, Fluo-4 AM. On the procedure:
Using Lipofectamine 2000 (Invitrogen), cDNA of GPR120 receptor was transfected into CHO/NFAT-BLA cells, and drug-resistant cells were isolated to obtain GPR120 stable expression strains. The GPR120-expressed CHO cells were cultured in DMEM/F12 medium containing 10% fetal bovine serum, 100 units/ml penicillin, 0.1 mg/ml streptomycin sulfate, 250 μg/ml Zeocin, 500 μg/mL Geneticin and 15 mM HEPES. On the day before the measurement day, 4 μM Fluo-4 AM (fluorescence calcium indicator reagent) was incubated to be introduced into the human GPR120 expression CHO cells plated at 20000 cells per well of a 96-well black plate (ViewPlate; Packard) in the presence of 2.5 mM probenecid in a CO2 incubator for 1 hour. To the cells was added the test compound diluted with HBSS solution containing 20 mM HEPES and 2.5 mM probenecid. Variations in the intracellular calcium concentration were measured by Fluorescence Imaging Plate Reader (FLIPR; Molecular Devices) to examine the agonist action, and EC50 values were calculated.
With `CC(Cc1ccc(-c2cc(O)no2)cc1)Oc1ccc(Cl)cc1` (stereo not drawn) [Example 16, 5-(4-(2-(4-chlorophenoxy)propyl)phenyl)isoxazol-3-01], the “Agonistic activity at 10 μmol/l (%)” value was found to be 96%.
On to “N-[4-(3-hydroxyisoxazol-5-yl)benzyl]-3-isopropoxy-N-methylaniline [Example 65]”, for which the “Agonistic activity at 10 μmol/l (%)” value is listed as 76%.
Take `CC(Cc1ccc(-c2cc(O)no2)cc1)Oc1ccc(Cl)cc1F` (stereo not drawn) [Example 17, 5-(4-(2-(4-chloro-2-fluorophenoxy)propyl)phenyl)isoxazol-3-01]: the “Agonistic activity at 10 μmol/l (%)” value worked out at 97%.
Take `CC(C)Oc1cc(CC(C)Oc2ccc(-c3cc(O)no3)cc2)ccn1.Cl` (stereo not drawn) [Example 62]: the “Agonistic activity at 10 μmol/l (%)” value is reported as 99%.
On the same count and under the same terms, the same measure for “5-{4-[(2-fluoro-2-{3-[(1-methylethyl)oxy]phenyl}ethyl)oxy]phenyl}isoxazol-3-ol [Example 31]”: 93%; for “5-(4-(2-(4-methylphenoxy)propyl)phenyl)isoxazol-3-ol [Example 14]”: 101%; for `CC(C)Cc1cccc(CC(C)Oc2ccc(-c3cc(O)no3)cc2)c1` (stereo not drawn) [Example 53, 5-{4-[2-(3-isobutylphenyl)-1-methylethoxy]phenyl}isoxazol-3-01]: 100%.
On to `C[C@H](Cc1cccc(OC2CC2)c1)Oc1ccc(-c2cc(O)no2)cc1` [Example 22, 5-[4-({(1R)-1-methyl-2-[3-(cyclopropyloxy)phenyl]-1-methylethyl]oxy)phenyl}isoxazol-3-ol], for which the “Agonistic activity at 10 μmol/l (%)” value amounted to 93%.
As for `CC(C)Oc1cccc(C[C@@H](C)Oc2ccc(-c3cc(O)no3)cc2)c1` [Example 20], the “Agonistic activity at 10 μmol/l (%)” value came out at 94%.
The same measure, in the same setting: as for `COc1cccc(C(F)COc2ccc(-c3cc(O)no3)cc2)c1` (stereo not drawn) [Example 2, 5-(4-(2-fluoro-2-(3-methoxyphenyl)ethoxy)phenyl)isoxazol-3-61], the figure is 110%; as for “5-(4-(2-(3-ethylphenyl)-1-methylethoxy)phenyl)isoxazol-3-ol [Example 35]”, 98%.
Still for that read-out and setting: the same measure for `CC(C)Oc1ccccc1C(C)COc1ccc(-c2cc(O)no2)c(F)c1` (stereo not drawn) [Example 39]: 90%.
On the same count and under the same terms, the same measure for `CC(Cc1ccc(-c2cc(O)no2)cc1)Oc1ccc(Cl)cc1Cl` (stereo not drawn) [Example 18, 5-(4-(2-(2,4-dichlorophenoxy)propyl)phenyl)isoxazol-3-01]: 97%.
For “5-(4-(2-(3-isopropoxyphenyl)propoxy)phenyl)-isoxazol-3-ol [Example 33]”, the “Agonistic activity at 10 μmol/l (%)” value is listed as 84%.
With `Cc1cccc(OC(C)Cc2ccc(-c3cc(O)no3)cc2)c1` (stereo not drawn) [Example 11, 5-(4-(2-(3-methylphenoxy)propyl)phenyl)isoxazol-3-01], the “Agonistic activity at 10 μmol/l (%)” value is on record as 91%.

The test is the same for the next values; noted with them: 10 μmol/l test compound, human GPR120 expression CHO cells, Fluo-4 AM, read-out: Agonistic activity at 10 μmol/l (%).
For `CC(C)Oc1cccc(CC(C)Oc2ccc(-c3cc(O)no3)cn2)c1` (stereo not drawn) [Example 7, 5-(6-(2-(3-isopropoxyphenyl)-1-methylethoxy)pyridin-3-yl)isoxazol-3-ol], the activation at 10 µM amounted to 98%.
Same read-out and setting: as for `CC(C)Oc1cccc(C[C@H](C)Oc2ccc(-c3cc(O)no3)cc2)c1` [Example 21, 5-{4-[((1S)-1-methyl-2-{3-[(1-methylethyl)oxy]phenyl}ethyl)oxy]phenyl}isoxazol-3-ol], the figure is 95%; as for `C[C@H](Cc1cccc(OC(F)(F)F)c1)Oc1ccc(-c2cc(O)no2)cc1` [Example 23, 5-{4-[((1R)-1-methyl-2-{3-[(trifluoromethyl)oxy]phenyl}ethyl)oxy]phenyl}isoxazol-3-ol], 101%.
As to `CC(C)Oc1cccc(C(C)OCc2ccc(-c3cc(O)no3)cc2)c1` (stereo not drawn) [Example 47, 5-(4-{[1-(3-isopropoxyphenyl)ethoxy]methyl}phenyl)isoxazol-3-ol], the activation at 10 µM is 92%.
In the case of `COc1cc(OC)cc(OC(C)Cc2ccc(-c3cc(O)no3)cc2)c1` (stereo not drawn) [Example 15, 5-(4-(2-(3,5-dimethoxyphenoxy)propyl)phenyl)isoxazol-3-ol], the activation at 10 µM stood at 97%.
As for `CC(C)Oc1cccc(CC(C)Oc2ccc(-c3cc(O)no3)cc2)c1` (stereo not drawn) [Example 1, 5-(4-(2-(3-isopropoxyphenyl)-1-methylethoxy)phenyl)isoxazol-3-ol], the activation at 10 µM was determined as 104%.
The same measure, in the same setting: as for `CC(C)Oc1cccc(N(C)CCc2ccc(-c3cc(O)no3)cc2)c1` [Example 48, N-{2-[4-(3-hydroxyisoxazol-5-yl)phenyl]ethyl}-3-isopropoxy-N-methylaniline Trifluoroacetate], the figure is 92%.
The same measure, in the same setting: as for `CC(C)Oc1cccc(C(=O)COc2ccc(-c3cc(O)no3)cc2)c1` [Example 42, 2-[4-(3-hydroxyisoxazole-5-yl)phenoxy]-1-(3-isopropoxyphenyl)ethanone], the figure is 98%; as for `CC(C)Oc1cccc(C(C)(C)COc2ccc(-c3cc(O)no3)c(F)c2)c1` [Example 38, 5-{2-fluoro-4-[2-(3-isopropoxyphenyl)-2-methylpropoxy]phenyl}isoxazol-3-ol], 92%; as for `CC(C)Oc1cccc(C(C)(C)COc2ccc(-c3cc(O)no3)cc2)c1` [Example 5, 5-(4-(2-methyl-2-(3-isopropoxyphenyl)propoxy)phenyl)-isoxazol-3-ol], 94%.
For `CC(C)Oc1cccc(CCN(C)c2ccc(-c3cc(O)no3)cc2)c1` [Example 60, 4-(3-hydroxyisoxazol-5-yl)-N-[2-(3-isopropoxyphenyl)ethyl]-N-methylaniline Trifluoroacetate], the activation at 10 µM was found to be 65%.
With `COc1cccc(C(F)(F)COc2ccc(-c3cc(O)no3)cc2)c1` [Example 3, 5-(4-(2,2-difluoro-2-(3-methoxyphenyl)ethoxy)phenyl)isoxazol-3-ol], the activation at 10 µM worked out at 105%.
For the compound `CC(C)Oc1cccc(C[C@H](C)Oc2ccc(-c3cc(O)no3)cn2)c1` [Example 27, 5-{6-[((1S)-1-methyl-2-{3-[(1-methylethyl)oxy]phenyl}ethyl)oxy]pyridin-3-yl}isoxazol-3-ol Hydrochloride], the activation at 10 µM came out at 99%.
Take `CC(C)Oc1cccc(C(C)COc2ccc(-c3cc(O)no3)cn2)c1` (stereo not drawn) [Example 40, 5-(6-(2-(3-isopropoxyphenyl)propoxy)pyridin-3-yl)isoxazol-3-ol]: the activation at 10 µM is 95%.
As for `CCOc1cccc(CC(C)Oc2ccc(-c3cc(O)no3)cc2F)c1` (stereo not drawn) [Example 56, 5-{4-[2-(3-ethoxyphenyl)-1-methylethoxy]-3-fluorophenyl}isoxazol-3-ol], the activation at 10 µM was 96%.
As for `CCOc1cccc(CC(C)Oc2ccc(-c3cc(O)no3)c(F)c2)c1` (stereo not drawn) [Example 37, 5-{2-fluoro-4-[2-(3-ethoxyphenyl)-1-methylethoxy]phenyl}isoxazol-3-ol], the activation at 10 µM turned out to be 97%.
The same measure, in the same setting: as for `CC(C)Oc1cc(C[C@H](C)Oc2ccc(-c3cc(O)no3)cc2)ccn1` [Example 63, 5-(4-(((1S)-1-methyl-2-(2-((1-methylethyl)oxy)pyridin-4-yl)ethyl)oxy)phenyl)isoxazol-3-ol Sodium Salt], the figure is 106%; as for `CC(C)Oc1cccc(CC(C)Oc2ccc(-c3cc(O)no3)nc2)c1` (stereo not drawn) [Example 8, 5-(5-(2-(3-isopropoxyphenyl)-1-methylethoxy)pyridin-2-yl)isoxazol-3-ol], 96%.

The record behind these values is US20110065739A1, “NOVEL ISOXAZOLE DRIVATIVE” (priority 2008, published 2011).
